System: panel of trained evaluators
Assay: Determination of the GC-odor threshold values (gas chromatograph with sniff port)
Details: for odor threshold value, geometric mean: GC sniff port, absolute amount of compound delivered at the sniff port, identical conditions
Description: As used herein “odor threshold value” means the lowest concentration of a vapor in the air which can be detected by smell. Generally speaking, it can be said that a compound with a low odor threshold value is more powerful than a compound with a high odor threshold value and thus allows the use of a very low concentration in a fragrance composition to achieve an olfactory effect. According to standard procedures known to the person skilled in the art, threshold values for volatile perfumery compounds are determined on a gas chromatograph equipped with a sniff port by a panel of trained evaluators. The lowest concentration smelled by each panelist is recorded as the individual threshold value expressed in ng (absolute amount of compound delivered at the sniff port). By way of comparison, there were also tested (Z)-2-methyl-3-hexen-1-yl salicylate and (Z)-3-hexen-1-yl 2-hydroxy-3-methylbenzoate. The objective was to show the considerable effect exerted by the position of a substituent. Under identical conditions the odor threshold value for the individual compounds was measured.

| SMILES | odor threshold value, geometric mean [ng] | odor threshold of the (Z)-isomer relative to the (E)-isomer (times lower) ((Z)- vs (E)-4-hepten-2-yl salicylate) |
| --- | --- | --- |
| CC/C=C\C(C)COC(=O)c1ccccc1O (centres unmarked) [(Z)-2-Methyl-3-hexen-1-yl salicylate] | 10 | – |
| CC/C=C\CCOC(=O)c1cccc(C)c1O [(Z)-3-Hexen-1-yl 2-hydroxy-3-methylbenzoate] | 201 | – |
| CC/C=C\CCOC(=O)c1ccccc1O [(Z)-3-Hexen-1-yl salicylate] | 0.92 | – |
| CC/C=C\CC(C)OC(=O)c1ccccc1O (centres unmarked) [(Z)-4-Hepten-2-yl salicylate] | 0.77 | about 10 times |
